From patent publication US20110086759A1, “CHEMICAL COMPOUNDS” (SYNGENTA CROP PROTECTION, INC., priority 2007, published 2011)

Key:
Type in all cases: in vivo
[1] = system: Solanum nigrum (SOLNI); assay: Pre-emergence biological efficacy, glasshouse pot test; settings: 312 h
Summary of the method: (§1)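 Damage was rated on a 0–100 scale 13 days after treatment, with plants kept at 24/16° C, 14 h light and 65% humidity. The pre-emergence spray, at 1000 or 250 g/ha in acetone/water 50:50 with 0.5% Tween 20, was applied one day after sowing.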

[2] = system: Alopecurus myosuroides (ALOMY); assay: as above; settings: 312 h
Summary of the method: as §1

[3] = system: Setaria faberi (SETFA); assay: as above; settings: 312 h
Summary of the method: as §1

[4] = system: Echinochloa crus-galli (ECHCG); assay: as above; settings: 312 h
Summary of the method: as §1

[5] = system: Ipomea hederaceae (IPOHE); assay: as above; settings: Ipomoea hederacea, 312 h
Summary of the method: as §1

[6] = system: Amaranthus retoflexus (AMARE); assay: as above; settings: Amaranthus retroflexus, 312 h
Summary of the method: as §1

[7] = system: Solanum nigrum (SOLNI); assay: Post-emergence biological efficacy, glasshouse pot test; settings: 312 h
Summary of the method: (§2)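 Scored 13 days after spraying on a 0 (no damage) to 100 (total damage) scale. Treatment was a post-emergence spray at 1000 or 250 g/ha, from acetone/water 50:50 plus 0.5% Tween 20, onto 8-day-old plants in soil pots. Growth at 24/16° C, 14 h photoperiod, 65% humidity, watered twice daily.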

[8] = system: Alopecurus myosuroides (ALOMY); assay: as above; settings: 312 h
Summary of the method: as §2

[9] = system: Setaria faberi (SETFA); assay: as above; settings: 312 h
Summary of the method: as §2

[10] = system: Echinochloa crus-galli (ECHCG); assay: as above; settings: 312 h
Summary of the method: as §2

[11] = system: Ipomea hederaceae (IPOHE); assay: as above; settings: Ipomoea hederacea, 312 h
Summary of the method: as §2

[12] = system: Amaranthus retoflexus (AMARE); assay: as above; settings: Amaranthus retroflexus, 312 h
Summary of the method: as §2

[13] = pre-emergence, 1,000 g/ha, evaluated after 13 days (100=total damage; 0=no damage), read-out: Percentage damage SOLNI
[14] = pre-emergence, 1,000 g/ha, evaluated after 13 days (100=total damage; 0=no damage), read-out: Percentage damage ALOMY
[15] = pre-emergence, 1,000 g/ha, evaluated after 13 days (100=total damage; 0=no damage), read-out: Percentage damage SETFA
[16] = pre-emergence, 1,000 g/ha, evaluated after 13 days (100=total damage; 0=no damage), read-out: Percentage damage ECHCG
[17] = pre-emergence, 1,000 g/ha, evaluated after 13 days (100=total damage; 0=no damage), read-out: Percentage damage IPOHE
[18] = pre-emergence, 1,000 g/ha, evaluated after 13 days (100=total damage; 0=no damage), read-out: Percentage damage AMARE
[19] = post-emergence, 1,000 g/ha, evaluated after 13 days (100=total damage; 0=no damage), read-out: Percentage damage caused to weed species, SOLNI
[20] = post-emergence, 1,000 g/ha, evaluated after 13 days (100=total damage; 0=no damage), read-out: Percentage damage caused to weed species, ALOMY
[21] = post-emergence, 1,000 g/ha, evaluated after 13 days (100=total damage; 0=no damage), read-out: Percentage damage caused to weed species, SETFA
[22] = post-emergence, 1,000 g/ha, evaluated after 13 days (100=total damage; 0=no damage), read-out: Percentage damage caused to weed species, ECHCG
[23] = post-emergence, 1,000 g/ha, evaluated after 13 days (100=total damage; 0=no damage), read-out: Percentage damage caused to weed species, IPOHE
[24] = post-emergence, 1,000 g/ha, evaluated after 13 days (100=total damage; 0=no damage), read-out: Percentage damage caused to weed species, AMARE
[25] = pre-emergence, rate 1,000 g/ha, evaluated after 13 days (100=total damage to plant; 0=no damage), read-out: Percentage damage caused to weed species, SOLNI
[26] = pre-emergence, rate 1,000 g/ha, evaluated after 13 days (100=total damage to plant; 0=no damage), read-out: Percentage damage caused to weed species, ALOMY
[27] = pre-emergence, rate 1,000 g/ha, evaluated after 13 days (100=total damage to plant; 0=no damage), read-out: Percentage damage caused to weed species, SETFA
[28] = pre-emergence, rate 1,000 g/ha, evaluated after 13 days (100=total damage to plant; 0=no damage), read-out: Percentage damage caused to weed species, ECHCG
[29] = pre-emergence, rate 1,000 g/ha, evaluated after 13 days (100=total damage to plant; 0=no damage), read-out: Percentage damage caused to weed species, IPOHE
[30] = pre-emergence, rate 1,000 g/ha, evaluated after 13 days (100=total damage to plant; 0=no damage), read-out: Percentage damage caused to weed species, AMARE
[31] = Rate 1,000 g/ha, post-emergence spray, evaluated after 13 days (100=total damage to plant; 0=no damage to plant), read-out: Percentage damage caused to weed species, post-emergence, SOLNI
[32] = Rate 1,000 g/ha, post-emergence spray, evaluated after 13 days (100=total damage to plant; 0=no damage to plant), read-out: Percentage damage caused to weed species, post-emergence, ALOMY
[33] = Rate 1,000 g/ha, post-emergence spray, evaluated after 13 days (100=total damage to plant; 0=no damage to plant), read-out: Percentage damage caused to weed species, post-emergence, SETFA
[34] = Rate 1,000 g/ha, post-emergence spray, evaluated after 13 days (100=total damage to plant; 0=no damage to plant), read-out: Percentage damage caused to weed species, post-emergence, ECHCG
[35] = Rate 1,000 g/ha, post-emergence spray, evaluated after 13 days (100=total damage to plant; 0=no damage to plant), read-out: Percentage damage caused to weed species, post-emergence, IPOHE
[36] = Rate 1,000 g/ha, post-emergence spray, evaluated after 13 days (100=total damage to plant; 0=no damage to plant), read-out: Percentage damage caused to weed species, post-emergence, AMARE

Compound	pest or weed control at 1000 g/ha [1, 13] [%]	pest or weed control at 1000 g/ha [2, 14] [%]	pest or weed control at 1000 g/ha [3, 15] [%]	pest or weed control at 1000 g/ha [4, 16] [%]	pest or weed control at 1000 g/ha [5, 17] [%]	pest or weed control at 1000 g/ha [6, 18] [%]	pest or weed control at 1000 g/ha [7, 19] [%]	pest or weed control at 1000 g/ha [8, 20] [%]	pest or weed control at 1000 g/ha [9, 21] [%]	pest or weed control at 1000 g/ha [10, 22] [%]	pest or weed control at 1000 g/ha [11, 23] [%]	pest or weed control at 1000 g/ha [12, 24] [%]	pest or weed control at 1000 g/ha [1, 25] [%]	pest or weed control at 1000 g/ha [2, 26] [%]	pest or weed control at 1000 g/ha [3, 27] [%]	pest or weed control at 1000 g/ha [4, 28] [%]	pest or weed control at 1000 g/ha [5, 29] [%]	pest or weed control at 1000 g/ha [6, 30] [%]	pest or weed control at 1000 g/ha [7, 31] [%]	pest or weed control at 1000 g/ha [8, 32] [%]	other results
COC(=O)c1nc(C2CC2)nc(N[C@@H](CO)Cc2ccccc2)c1Cl [4-273 (R), 5-Chloro-2-cyclopropyl-4-[(1R)-1-hydroxymethyl-2-phenyl-ethylamino]-6-methoxycarbonyl-pyrimidine]	80	50	70	60	100	80	90	30	60	60	90	100									
COC(=O)c1nc(C2CC2)nc(NCC(F)c2ccc(F)cc2F)c1Cl (stereo not drawn) [Compound 4-238, 5-Chloro-2-cyclopropyl-4-[2-(2,4-difluoro-phenyl)-2-fluoro-ethylamino]-6-methoxycarbonyl-pyrimidine]	50	0	0	0	0	10	70	10	0	0	60	90									
COC(=O)c1nc(C2CC2)nc(N(C/C=C/c2ccccc2OC)C(C)C)c1Cl [Compound 146-255, 5-Chloro-2-cyclopropyl-4-{N-isopropyl-N-[3-(2-methoxyphenyl)-prop-2-enyl]-amino}-6-methoxycarbonyl-pyrimidine]													10	10	20	10	70	100	80	20	pest or weed control at 1000 g/ha [9, 33]: 80%; pest or weed control at 1000 g/ha [10, 34]: 30%; pest or weed control at 1000 g/ha [11, 35]: 100%; pest or weed control at 1000 g/ha [12, 36]: 100%
COC(=O)c1nc(C2CC2)nc(NCc2cccc(F)c2F)c1Cl [Compound 4-96, 5-Chloro-2-cyclopropyl-4-(2,3-difluorophenyl-methylamino)-6-methoxycarbonyl-pyrimidine]	60	10	30	20	50	60	100	20	90	80	100	100									
COC(=O)c1nc(C2CC2)nc(N[C@@H](Cc2ccc(Cl)cc2)C(=O)OC)c1Cl [4-285 (S), 5-Chloro-4-[(1S)-2-(4-chlorophenyl)-1-methoxycarbonyl-ethylamino]-2-cyclopropyl-6-methoxycarbonyl-pyrimidine]	90	20	20	30	70	90	90	20	40	20	90	100									
COC(=O)c1nc(-c2ccc(C)c([N+](=O)[O-])c2)nc(NCc2ccco2)c1Cl [Compound 256-48, 5-Chloro-4-(furan-2-ylmethylamino)-6-methoxycarbonyl-2-(4-methyl-3-nitrophenyl)-pyrimidine]													0	0	0	0	0	80	50	0	pest or weed control at 1000 g/ha [9, 33]: 10%; pest or weed control at 1000 g/ha [10, 34]: 0%; pest or weed control at 1000 g/ha [11, 35]: 20%; pest or weed control at 1000 g/ha [12, 36]: 30%
CCC(Nc1nc(C2CC2)nc(C(=O)OC)c1Cl)c1ccccc1 (stereo not drawn) [Compound 4-194, 5-Chloro-2-cyclopropyl-6-methoxycarbonyl-4-(1-phenylpropyl-amino)pyrimidine]	60	10	10	20	90	100	100	10	80	60	100	100									
C=CCN(Cc1ccc(Cl)s1)c1nc(C2CC2)nc(C(=O)OC)c1Cl [Compound 151-141, 5-Chloro-4-[N-(5-chlorothiophen-2-ylmethyl)-N-prop-2-en-1-yl-amino]-2-cyclopropyl-6-methoxycarbonyl-pyrimidine]													0	10	0	0	40	50	40	10	pest or weed control at 1000 g/ha [9, 33]: 60%; pest or weed control at 1000 g/ha [10, 34]: 10%; pest or weed control at 1000 g/ha [11, 35]: 70%; pest or weed control at 1000 g/ha [12, 36]: 40%
